For experiment [1], the target named is Insulin-like growth factor 1 receptor (Homo sapiens) (UniProt P08069). The experiment can be described thus: Binding affinity to wild-type human partial length IGF1R (L972 to D1294 residues) expressed in bacterial expression system assessed as residual binding level at 10 uM by Kinomescan method relative to control.
Experiment [2] concerns the target Mitogen-activated protein kinase kinase kinase 7 (Homo sapiens) (UniProt O43318). The experiment can be described thus: Binding affinity to wild-type human partial length TAK1 (M1 to Q303 residues) expressed in mammalian expression system assessed as residual binding level at 10 uM by Kinomescan method relative to control.
Experiment [3] deals with Cyclin-dependent kinase 2 homolog (Plasmodium falciparum (isolate 3D7)) (UniProt P61075). The experiment can be described thus: Binding affinity to wild-type Plasmodium falciparum full length PK5 (M1 to N288 residues) expressed in mammalian expression system assessed as residual binding level at 10 uM by Kinomescan method relative to control.
The target of experiment [4] is Platelet-derived growth factor receptor beta (Homo sapiens) (UniProt P09619). The experiment can be described thus: Binding affinity to wild-type human partial length PDGFRB (V582 to Y1009 residues) expressed in bacterial expression system assessed as residual binding level at 10 uM by Kinomescan method relative to control.
Experiment [5] addresses Serine/threonine-protein kinase STK11 (Homo sapiens) (UniProt Q15831). The experiment can be described thus: Binding affinity to wild-type human full length LKB1 (M1 to Q433 residues) expressed in bacterial expression system assessed as residual binding level at 10 uM by Kinomescan method relative to control.
In experiment [6] the target is Cyclin-dependent kinase 11B (Homo sapiens) (UniProt P21127). The experiment can be described thus: Binding affinity to wild-type human partial length CDC2L1 (P353 to G692 residues) expressed in bacterial expression system assessed as residual binding level at 10 uM by Kinomescan method relative to control.
For experiment [7], the target named is Serine/threonine-protein kinase B-raf (Homo sapiens) (UniProt P15056). The experiment can be described thus: Binding affinity to wild-type human partial length BRAF (S429 to E741 residues) expressed in mammalian expression system assessed as residual binding level at 10 uM by Kinomescan method relative to control.
Serine/threonine-protein kinase B-raf (Homo sapiens), sequence (P15056 whole entry, the tested form may be a part): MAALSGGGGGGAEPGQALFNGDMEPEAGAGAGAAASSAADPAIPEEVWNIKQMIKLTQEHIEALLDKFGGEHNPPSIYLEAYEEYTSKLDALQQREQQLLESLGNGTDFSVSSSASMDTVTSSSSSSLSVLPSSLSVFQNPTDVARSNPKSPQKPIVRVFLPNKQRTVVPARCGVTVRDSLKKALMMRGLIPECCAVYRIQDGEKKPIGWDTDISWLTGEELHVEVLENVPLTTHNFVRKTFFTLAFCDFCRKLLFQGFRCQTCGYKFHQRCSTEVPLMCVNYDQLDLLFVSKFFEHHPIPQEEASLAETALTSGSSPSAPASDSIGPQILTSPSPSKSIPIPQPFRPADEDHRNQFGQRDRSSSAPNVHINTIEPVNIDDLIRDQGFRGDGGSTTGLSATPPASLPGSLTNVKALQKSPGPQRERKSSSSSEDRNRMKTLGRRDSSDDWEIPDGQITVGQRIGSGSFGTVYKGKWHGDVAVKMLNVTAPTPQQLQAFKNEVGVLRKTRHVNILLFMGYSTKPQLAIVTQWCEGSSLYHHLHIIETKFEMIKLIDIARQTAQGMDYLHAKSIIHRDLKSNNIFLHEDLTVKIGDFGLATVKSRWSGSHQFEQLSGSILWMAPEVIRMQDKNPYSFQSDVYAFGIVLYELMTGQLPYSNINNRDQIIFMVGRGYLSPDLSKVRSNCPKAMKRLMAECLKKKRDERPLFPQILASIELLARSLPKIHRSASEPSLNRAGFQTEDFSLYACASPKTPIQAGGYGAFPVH
Experiment [8] has as its target Cyclin-dependent kinase 3 (Homo sapiens) (UniProt Q00526). The experiment can be described thus: Binding affinity to wild-type human full length CDK3 (M1 to H305 residues) expressed in bacterial expression system assessed as residual binding level at 10 uM by Kinomescan method relative to control.
For experiment [9], the target named is Protein kinase C delta type (Homo sapiens) (UniProt Q05655). The experiment can be described thus: Binding affinity to wild-type human partial length PRKCD (Q328 to D676 residues) expressed in bacterial expression system assessed as residual binding level at 10 uM by Kinomescan method relative to control.
Experiment [10] deals with Serine/threonine-protein kinase ULK3 (Homo sapiens) (UniProt Q6PHR2). The experiment can be described thus: Binding affinity to wild-type human partial length ULK3 (M1 to Q290 residues) expressed in mammalian expression system assessed as residual binding level at 10 uM by Kinomescan method relative to control.
For experiment [11], the system named is Epidermal growth factor receptor (Homo sapiens), P00533 [L858R,T790M]. The experiment can be described thus: Binding affinity to human partial length EGFR L858R/T790M double mutant (R669 to V1011 residues) expressed in mammalian expression system assessed as residual binding level at 10 uM by Kinomescan method relative to control.
Experiment [12] deals with Homeodomain-interacting protein kinase 3 (Homo sapiens) (UniProt Q9H422). The experiment can be described thus: Binding affinity to wild-type human partial length HIPK3 (M153 to N562 residues) expressed in mammalian expression system assessed as residual binding level at 10 uM by Kinomescan method relative to control.
Homeodomain-interacting protein kinase 3 (Homo sapiens), sequence (Q9H422 whole entry, looked up, the tested form may be a part): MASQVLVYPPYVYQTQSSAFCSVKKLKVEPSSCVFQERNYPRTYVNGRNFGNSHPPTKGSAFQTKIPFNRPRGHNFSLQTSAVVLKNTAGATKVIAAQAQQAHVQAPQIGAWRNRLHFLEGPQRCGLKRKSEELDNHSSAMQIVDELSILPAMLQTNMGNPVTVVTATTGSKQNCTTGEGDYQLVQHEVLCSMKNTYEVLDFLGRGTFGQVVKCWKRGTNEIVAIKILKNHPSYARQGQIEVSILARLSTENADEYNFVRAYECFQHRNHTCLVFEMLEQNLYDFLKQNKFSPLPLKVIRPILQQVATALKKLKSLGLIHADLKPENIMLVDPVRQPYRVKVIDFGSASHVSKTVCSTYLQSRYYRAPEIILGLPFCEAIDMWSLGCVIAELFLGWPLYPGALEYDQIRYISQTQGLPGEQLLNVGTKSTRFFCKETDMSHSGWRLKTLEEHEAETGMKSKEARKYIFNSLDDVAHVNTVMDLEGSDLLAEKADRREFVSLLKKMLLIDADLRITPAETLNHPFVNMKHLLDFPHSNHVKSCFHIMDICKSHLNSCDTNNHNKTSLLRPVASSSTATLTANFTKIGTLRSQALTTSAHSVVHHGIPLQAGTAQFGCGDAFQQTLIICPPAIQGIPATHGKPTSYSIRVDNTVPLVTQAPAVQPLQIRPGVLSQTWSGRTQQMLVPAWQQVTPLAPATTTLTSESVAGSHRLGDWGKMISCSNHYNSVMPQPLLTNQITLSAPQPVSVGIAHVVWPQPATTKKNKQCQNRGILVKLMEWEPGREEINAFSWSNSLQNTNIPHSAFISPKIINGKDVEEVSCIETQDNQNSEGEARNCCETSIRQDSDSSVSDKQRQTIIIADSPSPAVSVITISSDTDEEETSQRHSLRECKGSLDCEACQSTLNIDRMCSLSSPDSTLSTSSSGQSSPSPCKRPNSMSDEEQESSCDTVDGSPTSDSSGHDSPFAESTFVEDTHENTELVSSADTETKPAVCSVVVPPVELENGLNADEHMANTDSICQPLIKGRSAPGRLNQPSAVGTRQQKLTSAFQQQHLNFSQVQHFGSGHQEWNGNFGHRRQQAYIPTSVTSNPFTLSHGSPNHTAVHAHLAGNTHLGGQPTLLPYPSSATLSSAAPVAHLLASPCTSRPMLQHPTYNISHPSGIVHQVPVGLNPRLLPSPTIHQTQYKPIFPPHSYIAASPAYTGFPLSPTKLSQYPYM
Experiment [13] has as its target Serine/threonine-protein kinase LATS2 (Homo sapiens) (UniProt Q9NRM7). The experiment can be described thus: Binding affinity to wild-type human partial length LATS2 (Q641 to V1088 residues) expressed in mammalian expression system assessed as residual binding level at 10 uM by Kinomescan method relative to control.
In experiment [14] the target is Testis-specific serine/threonine-protein kinase 1 (Homo sapiens) (UniProt Q9BXA7). The experiment can be described thus: Binding affinity to wild-type human full length TSSK1B (M1 to Q367 residues) expressed in bacterial expression system assessed as residual binding level at 10 uM by Kinomescan method relative to control.
Experiment [15] has as its target Serine/threonine-protein kinase Nek5 (Homo sapiens) (UniProt Q6P3R8). The experiment can be described thus: Binding affinity to wild-type human partial length NEK5 (M1 to M279 residues) expressed in bacterial expression system assessed as residual binding level at 10 uM by Kinomescan method relative to control.
Experiment [16] has as its target Myosin-IIIa (Homo sapiens) (UniProt Q8NEV4). The experiment can be described thus: Binding affinity to wild-type human partial length MYO3A (M1 to K338 residues) expressed in bacterial expression system assessed as residual binding level at 10 uM by Kinomescan method relative to control.
Experiment [17] addresses Serine/threonine-protein kinase PAK 5 (Homo sapiens) (UniProt Q9P286). The experiment can be described thus: Binding affinity to wild-type human partial length PAK7 (Y400 to H719 residues) expressed in bacterial expression system assessed as residual binding level at 10 uM by Kinomescan method relative to control.
For experiment [18], the system named is Mast/stem cell growth factor receptor Kit (Homo sapiens), P10721 [V559D,T670I]. The experiment can be described thus: Binding affinity to human partial length KIT V559D/T670I double mutant (Y545 to D952 residues) expressed in bacterial expression system assessed as residual binding level at 10 uM by Kinomescan method relative to control.
Mast/stem cell growth factor receptor Kit (Homo sapiens), P10721 [V559D,T670I], sequence (P10721 whole entry V559D/T670I, the tested form may be a part): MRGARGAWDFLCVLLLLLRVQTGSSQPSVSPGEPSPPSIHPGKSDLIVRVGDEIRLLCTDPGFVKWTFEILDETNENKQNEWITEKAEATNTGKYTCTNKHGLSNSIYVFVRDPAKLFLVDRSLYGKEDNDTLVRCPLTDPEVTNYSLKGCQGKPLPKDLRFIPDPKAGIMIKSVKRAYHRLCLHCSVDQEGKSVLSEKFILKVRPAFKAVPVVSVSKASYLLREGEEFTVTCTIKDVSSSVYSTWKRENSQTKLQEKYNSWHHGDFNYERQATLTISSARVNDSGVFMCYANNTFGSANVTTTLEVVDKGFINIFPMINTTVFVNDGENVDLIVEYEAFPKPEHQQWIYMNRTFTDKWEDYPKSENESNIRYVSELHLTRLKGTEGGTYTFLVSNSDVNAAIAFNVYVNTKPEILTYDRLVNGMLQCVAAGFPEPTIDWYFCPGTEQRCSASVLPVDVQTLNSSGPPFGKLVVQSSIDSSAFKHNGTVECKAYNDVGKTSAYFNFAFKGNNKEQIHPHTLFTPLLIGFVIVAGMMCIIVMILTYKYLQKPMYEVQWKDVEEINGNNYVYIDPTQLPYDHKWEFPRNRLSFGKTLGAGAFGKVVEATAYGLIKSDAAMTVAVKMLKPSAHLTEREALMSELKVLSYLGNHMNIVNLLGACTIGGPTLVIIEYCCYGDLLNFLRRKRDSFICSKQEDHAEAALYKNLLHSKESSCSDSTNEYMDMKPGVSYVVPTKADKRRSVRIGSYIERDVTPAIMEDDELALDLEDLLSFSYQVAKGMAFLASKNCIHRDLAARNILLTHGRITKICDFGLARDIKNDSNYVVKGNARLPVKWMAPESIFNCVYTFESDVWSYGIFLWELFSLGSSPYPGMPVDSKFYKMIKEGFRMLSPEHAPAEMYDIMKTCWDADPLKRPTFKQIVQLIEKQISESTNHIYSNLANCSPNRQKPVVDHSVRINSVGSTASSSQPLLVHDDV
For experiment [19], the target named is Dual serine/threonine and tyrosine protein kinase (Homo sapiens) (UniProt Q6XUX3). The experiment can be described thus: Binding affinity to wild-type human full length RIPK5 (M1 to T929 residues) expressed in mammalian expression system assessed as residual binding level at 10 uM by Kinomescan method relative to control.
Experiment [20] addresses Peripheral plasma membrane protein CASK (Homo sapiens) (UniProt O14936). The experiment can be described thus: Binding affinity to wild-type human partial length CASK (M1 to H315 residues) expressed in mammalian expression system assessed as residual binding level at 10 uM by Kinomescan method relative to control.
Experiment [21] has as its target Tyrosine-protein kinase JAK1 (Homo sapiens) (UniProt P23458). The experiment can be described thus: Binding affinity to wild-type human partial length JAK1 JH1 catalytic domain (V856 to K1154 residues) expressed in bacterial expression system assessed as residual binding level at 10 uM by Kinomescan method relative to control.
Experiment [22] has as its target Serine/threonine-protein kinase haspin (Homo sapiens) (UniProt Q8TF76). The experiment can be described thus: Binding affinity to wild-type human partial length HASPIN (I452 to K798 residues) expressed in mammalian expression system assessed as residual binding level at 10 uM by Kinomescan method relative to control.
For experiment [23], the target named is Fibroblast growth factor receptor 4 (Homo sapiens) (UniProt P22455). The experiment can be described thus: Binding affinity to wild-type human partial length FGFR4 (G402 to E713 residues) expressed in bacterial expression system assessed as residual binding level at 10 uM by Kinomescan method relative to control.
Fibroblast growth factor receptor 4 (Homo sapiens), sequence (P22455 22-802 limits assumed): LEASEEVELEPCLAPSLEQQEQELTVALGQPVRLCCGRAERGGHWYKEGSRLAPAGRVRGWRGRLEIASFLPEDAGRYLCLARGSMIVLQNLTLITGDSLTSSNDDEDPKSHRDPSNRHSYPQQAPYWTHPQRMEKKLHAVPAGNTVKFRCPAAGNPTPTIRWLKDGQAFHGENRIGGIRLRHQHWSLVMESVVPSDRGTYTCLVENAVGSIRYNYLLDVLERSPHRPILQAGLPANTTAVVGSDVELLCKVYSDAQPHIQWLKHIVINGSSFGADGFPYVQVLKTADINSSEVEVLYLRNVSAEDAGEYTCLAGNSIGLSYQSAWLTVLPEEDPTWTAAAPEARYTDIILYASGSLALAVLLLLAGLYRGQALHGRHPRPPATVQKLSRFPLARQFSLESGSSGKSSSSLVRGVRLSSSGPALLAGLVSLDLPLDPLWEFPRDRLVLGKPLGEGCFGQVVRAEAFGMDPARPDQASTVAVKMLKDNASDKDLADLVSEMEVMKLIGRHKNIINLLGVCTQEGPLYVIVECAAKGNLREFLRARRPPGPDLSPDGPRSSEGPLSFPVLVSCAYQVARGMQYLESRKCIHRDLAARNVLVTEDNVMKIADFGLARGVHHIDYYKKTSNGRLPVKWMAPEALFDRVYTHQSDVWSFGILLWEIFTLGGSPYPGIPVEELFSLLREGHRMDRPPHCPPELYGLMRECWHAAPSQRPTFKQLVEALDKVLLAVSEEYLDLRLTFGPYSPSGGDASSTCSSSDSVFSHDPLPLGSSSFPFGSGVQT
Experiment [24] deals with Tyrosine-protein kinase Fer (Homo sapiens) (UniProt P16591). The experiment can be described thus: Binding affinity to wild-type human partial length FER (S542 to T822 residues) expressed in bacterial expression system assessed as residual binding level at 10 uM by Kinomescan method relative to control.

Serine/threonine-protein kinase STK11 (Homo sapiens), sequence (Q15831 whole entry, the tested form may be a part): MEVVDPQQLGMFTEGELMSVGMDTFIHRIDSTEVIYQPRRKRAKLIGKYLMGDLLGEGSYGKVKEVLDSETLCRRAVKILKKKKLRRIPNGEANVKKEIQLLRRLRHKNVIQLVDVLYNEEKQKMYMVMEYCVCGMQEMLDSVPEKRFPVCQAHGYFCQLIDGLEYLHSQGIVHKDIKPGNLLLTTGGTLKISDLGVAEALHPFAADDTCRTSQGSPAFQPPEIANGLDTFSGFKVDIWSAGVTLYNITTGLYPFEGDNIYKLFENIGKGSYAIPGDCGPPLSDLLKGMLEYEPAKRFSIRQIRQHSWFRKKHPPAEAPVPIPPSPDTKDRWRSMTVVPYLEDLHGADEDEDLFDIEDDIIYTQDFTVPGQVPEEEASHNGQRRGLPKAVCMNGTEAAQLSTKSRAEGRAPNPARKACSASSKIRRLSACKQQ
Serine/threonine-protein kinase PAK 5 (Homo sapiens), sequence (Q9P286 whole entry, looked up, the tested form may be a part): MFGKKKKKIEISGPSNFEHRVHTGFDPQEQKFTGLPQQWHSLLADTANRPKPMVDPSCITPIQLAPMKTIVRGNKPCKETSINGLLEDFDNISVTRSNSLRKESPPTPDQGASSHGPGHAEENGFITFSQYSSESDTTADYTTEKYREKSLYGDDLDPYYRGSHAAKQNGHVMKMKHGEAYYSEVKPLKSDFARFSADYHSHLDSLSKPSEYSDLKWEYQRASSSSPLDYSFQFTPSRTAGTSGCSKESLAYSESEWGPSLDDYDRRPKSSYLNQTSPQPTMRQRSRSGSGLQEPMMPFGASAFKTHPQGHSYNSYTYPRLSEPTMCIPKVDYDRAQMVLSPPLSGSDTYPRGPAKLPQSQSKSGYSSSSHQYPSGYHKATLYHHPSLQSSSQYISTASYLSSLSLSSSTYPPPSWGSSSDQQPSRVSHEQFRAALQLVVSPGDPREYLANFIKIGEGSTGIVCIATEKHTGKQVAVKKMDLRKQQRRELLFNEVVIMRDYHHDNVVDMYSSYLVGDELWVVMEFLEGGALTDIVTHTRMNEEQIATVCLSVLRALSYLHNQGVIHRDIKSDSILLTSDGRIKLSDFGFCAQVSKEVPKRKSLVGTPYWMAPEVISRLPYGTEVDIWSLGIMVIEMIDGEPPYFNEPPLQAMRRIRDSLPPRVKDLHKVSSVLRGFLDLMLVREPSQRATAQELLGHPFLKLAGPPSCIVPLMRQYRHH

Take `CC(C)N1C(=O)C(NCCCN(C)C)=C(c2cn(C)c3ccccc23)C1=O.Cl`: the Activity was determined as 80% in experiment [1]; 78% in [2]; 87% in experiment [3]; 99% in experiment [4]; 91% in experiment [5]; 96% in experiment [6]. Moreover, the Activity in experiment [7] turned out to be 89%; in [8], 99%; in experiment [9] it was 100%; in [10], 79%; in experiment [11], 100%; in [12] it was 90%. In addition, the Activity in experiment [13] is 88%; in experiment [14] it was 100%; in experiment [15], 100%; in experiment [16], 89%; in experiment [17], 100%; in experiment [18], 100%. Further, the Activity is 100% in experiment [19]; 92% in experiment [20]; 89% in experiment [21]; 100% in experiment [22]; 100% in [23]; 97% in experiment [24].

(Values after ChEMBL document CHEMBL4304811, “Development of a Water-Soluble Indolylmaleimide Derivative IM-93 Showing Dual Inhibition of Ferroptosis and NETosis” (ACS Med Chem Lett, 2019).)
